Source: patent US6465476B1, “Immuno-modulator exhibiting antimicrobial and anti-mycrobacterial activities, method for producing the same and pharmaceutical preparation” (priority 1997, dated 2002)
Read-outs that look alike come from different tables or passages of the source.

Legend:
Solubility = format: physicochemical
Description: It is soluble in dimethylformamide, dimethylsulfoxide, deluted acids and alkalies; f. p.=255-256° C. The structure of matter is confirmed by the data of PMR-spectroskopy.

[1] = system: antibody-forming cells (AFC) in the spleen; test: Humoral immunity, localized-in-gel hemolysis, AFC accumulation in spleen of immunized mice; format: in vivo, hybrid mice F1 (CBA/C57BL6)
Description: The influence on humoral immunity was studied using the method of localized-in-gel hemolysis. […] On the 5th day the number of antibody-forming cells (AFC) in the spleen of the mice was calculated and the immune response stimulation index was determined as the ratio of AFC number in the test group to the AFC number in the control group. The respective data are represented in Table 2.

pulmonary tuberculosis = test: Clinical study on patients with pulmonary tuberculosis; format: in vivo, human; conditions: for B-lymphocytes / T-helpers / T-lymphocytes / T-suppressors / Th/Ts: pulmonary tuberculosis patients
Source text: The preparation of the present invention was also studied clinically on tuberculous patients. The age of the patients was under 30 years (6 persons) and under 35 years (2 persons).
The clincal forms of pulmonary tuberculosis in the patients tested were as follows:
infiltrative tuberculosis without cavities of decay and bacterioexcretion—2 persons;
infiltrative tuberculosis with decay and bacterioexcretion—4 persons;
disseminated pulmonary tuberculosis—2 people.
The length of preparation intake was 1 to 2 months. The dose was equal to 0.6 g a day.
The control group consisting of 5 persons with infiltrative pulmonary tuberculosis received conventional treatment including isoniazide. The tolerance for the preparation claimed was good. […] There was no change in functional indices of parenchymatous organs (liver, kidneys, pancreas). In 3 persons hospitalized with symptoms of intoxication the improvement of general physical and mental state was noted including normatization of body temperature, abatement of cough, decrease in amount of sputum excretion, improvement of appetite.

[2] = Example 2, patient D., bronchiectatic disease; format: in vivo, human; conditions: daily dose 400 mg
Description: The patient was admitted to a clinic with a diagnosis “bronchiectatic disease”. Concomitant diseases were chronic tonsillitis, diffuse enlargement of thyroid approximately of the first or the second degree.
According to the protocol of clinical tests the patient was ordered the intake of isophonum for the periode of 30 days in a daily dose of 400 mg. On the 14th or 15th day of intake of the preparation the morning sputum discharge considerably diminished in quantity and changed in character from pussy to mucous, the cough ceased and the patient's general state of health and mood improved.

macrophages = test: Phagocytic activity of macrophages (clearance from blood); format: in vivo, mice; conditions: 500 μg per mouse per os
Source text: The influence of the preparations in question on the phagocytic activity of macrophages was studid from clearence of the carcass in blood taken from the retroorbital sinus of mice that received the preparations per os. The results were estimated on the phagocytic index α (see Table 4).

[3] = system: agent of leprosy (mycobacteria of leprosy)
[4] = system: human mononucleator cells (T-lymphocytes); test: Proliferation of T-lymphocytes in cell culture in vitro (3H-thymidine); format: cell-based
Description: The influence of the test compound on the proliferation of T-lymphocytes was studied on a model in vitro. To this end human mononucleator cells were preliminarily incubated during three hours in the presence of different concentrations of each test substance. Each test substance was studied over a wide range of its concentrations, that is from […]. As a negative control there was added a physiological 0.9 percent solution of NaCl. The results of the influence of novel compoubds on the intensity of proliferation of human lymphocytes in the cell culture in vitro are represented in Table 3.

[5] = system: Kyp-4 strain of leprosy mycobacteria; test: Antileprous activity in mice infected by Shepard's procedure; format: in vivo, leprosy mycobacteria; male mice of the CBA line
Source text: Antileprous activity of isophonum as compared with that of diuciphonum was studied on male mice of the CBA line infected with the laboratory Kyp-4 strain of leprosy mycobacteria taken in an amount of 5000 and introduced intraplantedly by Shepard's procedure. The experiment lasted six months from the 7th of February to the […] 1996. Observed were 5 groups of mice with 15 mice in each group. All the animals were kept under the same conditions of the vivarium on a standard diat.
The first group (controls): during six months of the experiment the mice received 0.5 ml of a starch suspension through a probe five times a week. After six months the animals were killed through a cervical dislocation of backbone, the organs were subjected to a bacterioscopic investigation, no pathologic deviations characteristic of any of the groups were found. The bacteriscopic investigation of the infected site was carried out by grinding the mouse foot in 2 ml of 0.1 percent solution of albumin, making a smear from 0.01 ml of the suspenstion and painting it by Ziel-Nielson's procedure and counting the number of leprosy micobacteria in 60 fields of vision to determine the number of micobacteria per mouse in each group.

[6] = after three months, 0.6 g a day
[7] = tuberculous patients, 0.6 g a day, 1 to 2 months
[8] = leprosy patients, after one month, 0.6 g daily
[9] = leprosy patients, after three months, 0.6 g daily
[10] = leprosy patients, before treatment

What does the source list for `Cc1[nH]c(=O)[nH]c(=O)c1S(=O)(=O)NNC(=O)c1ccncc1.O` [Isophonum, N-(6-methyl-2,4-dioxo-1,2,3,4-tetrahydro-5-pyrimidinsulfon)-N′-isonicotinoylhydrazide hydrate]?
solubility in dimethylformamide, dimethylsulfoxide, deluted acids and alkalies (Solubility): soluble; solubility in water or usual organic solvents (Solubility): difficult to dissolve; AFC-number in the spleen ([1]; 500 μg per mouse per os in starch suspension, 5th day after immunization): 2800 ± 200; Immune response stimulation index ([1]; 500 μg per mouse per os, ratio of AFC test group to control group): 5.6; B-lymphocytes (pulmonary tuberculosis; after one month, 0.6 g a day): 12.0 ± 0.8; T-helpers (pulmonary tuberculosis; after one month, 0.6 g a day): 37.4 ± 0.3; T-lymphocytes (pulmonary tuberculosis; after one month, 0.6 g a day): 48.5 ± 1.0; T-suppressors (pulmonary tuberculosis; after one month, 0.6 g a day): 20.0 ± 0.6; Th/Ts (pulmonary tuberculosis; after one month, 0.6 g a day): 1.85 ± 0.2; B-lymphocytes (pulmonary tuberculosis; [6]): 11.0 ± 0.6; T-helpers (pulmonary tuberculosis; [6]): 55.5 ± 2.0; T-lymphocytes (pulmonary tuberculosis; [6]): 54.8 ± 0.7; Th/Ts (pulmonary tuberculosis; [6]): 2.75 ± 0.04; B-lymphocytes (pulmonary tuberculosis; before treatment): 9.0 ± 0.3; T-helpers (pulmonary tuberculosis; before treatment): 28.6 ± 0.2; T-lymphocytes (pulmonary tuberculosis; before treatment): 42.2 ± 0.1; T-suppressors (pulmonary tuberculosis; before treatment): 28.0 ± 1.2; Th/Ts (pulmonary tuberculosis; before treatment): 1.0 ± 0.02; signs of toxication (pulmonary tuberculosis; [7]): No one of the patients exhibeted clinical, hematological signs of toxicaction; tolerance for the preparation (pulmonary tuberculosis; [7]): good; day of considerable improvement of clinical status and general blood analysis [2]: 20 days; day of considerable improvement of immune status parameters [2]: 31 days; Phagocytic index (macrophages): 6.55 ± 0.06; stimulation of the phagocytic activity of macrophages (macrophages): 56%; Phagocytic index, percent of controls (macrophages; controls 100%): (156%); shortening of the length of stationary treatment of the leprous patients ([3]; human, in vivo): two-fold; tolerability, side effects ([3]; human, in vivo): well tolerable, has no side effects; time after which the agent of leprosy disappeared in scrapes of nasal mucosa ([3]; leprosy patients, 0.6 g daily): 3 months; B-lymphocytes [3, 8]: 10.0 ± 0.2; T-helpers [3, 8]: 28.2 ± 0.3; T-lymphocytes [3, 8]: 43.4 ± 0.7; T-suppressors [3, 8]: 20.0 ± 0.4; Th/Ts (immunoregulatory index) [3, 8]: 1.4; B-lymphocytes [3, 9]: 11.4 ± 0.4; T-helpers [3, 9]: 48.4 ± 1.2; T-lymphocytes [3, 9]: 60.2 ± 0.9; T-suppressors [3, 9]: 21.2 ± 0.4; Th/Ts (immunoregulatory index) [3, 9]: 2.3 ± 0.1; B-lymphocytes [3, 10]: 8.4 ± 0.2; T-helpers [3, 10]: 20.2 ± 0.2; T-lymphocytes [3, 10]: 28.6 ± 0.1; T-suppressors [3, 10]: 20.4 ± 0.3; Th/Ts (immunoregulatory index) [3, 10]: 1.0; Intensity of involvement of 3H-thymidine in DNA of cultivated cells, PHA-activated ([4]; 0.01 μg/ml): 19995 impulse per minute; Intensity of involvement of 3H-thymidine in DNA of cultivated cells, Spontaneous ([4]; 0.01 μg/ml): 901 impulse per minute; Intensity of involvement of 3H-thymidine in DNA of cultivated cells, PHA-activated ([4]; 0.03 μg/ml): 24736 impulse per minute; Intensity of involvement of 3H-thymidine in DNA of cultivated cells, Spontaneous ([4]; 0.03 μg/ml): 1152 impulse per minute; Intensity of involvement of 3H-thymidine in DNA of cultivated cells, PHA-activated ([4]; 0.1 μg/ml): 37890 impulse per minute; Intensity of involvement of 3H-thymidine in DNA of cultivated cells, Spontaneous ([4]; 0.1 μg/ml): 1818 impulse per minute; Intensity of involvement of 3H-thymidine in DNA of cultivated cells, PHA-activated ([4]; 1 μg/ml): 25455 impulse per minute; Intensity of involvement of 3H-thymidine in DNA of cultivated cells, Spontaneous ([4]; 1 μg/ml): 1272 impulse per minute; Intensity of involvement of 3H-thymidine in DNA of cultivated cells, PHA-activated ([4]; 5 μg/ml): 20120 impulse per minute; Intensity of involvement of 3H-thymidine in DNA of cultivated cells, Spontaneous ([4]; 5 μg/ml): 871 impulse per minute; optimal concentration ([4]; proliferation of T-cells): 0.1 µg/mL; mitogenetic activity ([4]; spontaneous proliferation): possesses the proper mitogenetic activitiy of its own; activity against the leprosy mycobacteria ([5]; 2.5 mg/kg): bactericide activity; Percentage of infected animals ([5]; after six months, isophonum dose 2.5 mg/kg): 0%
